Data: patent US7794972B2, “Benzoate-and anthranilate-inducible promoters” (priority 2002, dated 2010)
“Also recorded” adds a separate entry of the source.

Tests used:
Format in all cases: cell-based, Pseudomonas fluorescens
[1] = system: Pant promoter (Pant713, antR/Pant); test: Anthranilate promoter (Pant) reporter gene induction (lacZ / phoA); settings: for induction of the anthranilate promoter: P. fluorescens, reporter gene lacZ or phoA
Protocol: (§1) Cell growth for induction: Strains of interest were grown overnight (at 30° C. with shaking at 250 rpm) in 1×M9 minimal salts medium (diluted from a 5× preparation purchased from Fisher Scientific, Pittsburgh, Pa.) supplemented with 0.5% or 1% (w/v) glucose, 1 mM MgSO4, and trace elements (for trace elements, the present examples used a solution containing salts of sodium, magnesium, manganese, iron, and cobalt, all at less than 0.5 mg/mL final concentration). Strains were then subcultured 1:4 in the same medium to a volume of 10 or 20 mL and then induced with 0-10 mM concentrations of anthranilate or benzoate, as indicated.
(§2) Strains of interest were grown overnight at 30° C. in 1×M9 medium supplemented with 0.5% or 1% (w/v) glucose, 1 mM MgSO4, and 5L/L trace elements (as described above), and optionally tetracycline at 15 ug/mL. These were then subcultured 1:4 or 1:5 in the same medium and then induced with indicated concentrations of anthranilate, benzoate, or other inducer, for a desired amount of time (e.g., for 2, 4, 6, 8, 12, or 24 hours, or overnight). Samples were taken at indicated times and those samples were assayed for reporter gene activity. Results are reported at time points taken at a given number of hours post-induction; time points are indicated by either a numeral for the number of hours, and in some cases this number is immediately preceded by the letter “I” indicating post-induction.
(§3) We prepared enough of the following assay medium to provide for each sample well of a 96-well plate (i.e. for all those wells used, with at least one well being used for each time point measured during the reaction course for each sample): 152 μL Z buffer (0.06M Na2HPO4.7H2O, 0.04M NaH2PO4.H2O, 0.01M KCl, 0.001M MgSO4.7H2O)+8 μL 1M β-mercaptoethanol. For each 900 μL of the resulting mix, we added one drop of 0.1%SDS and two drops of CHCl3, mixed (using a vortex-type mixer), and then added 144 μL thereof to each well. 16 μL of cells were then added to each well and the plate sealed with a plastic plate sealer. The plate was then mixed (by vortex) for 10 seconds, and then equilibrated to incubation temperature (room temperature) for 5 minutes. 50 μL 4 mg/mL ONPG was then added. When a significant yellow color developed, 90 μL stop solution (1M Na2CO3) was added and the reaction time recorded. The resulting color intensity for each sample was then read at A420 and A550. In addition, the cell density of each culture providing the 16 μL of cells used in each sample was read at A600. Miller Units were calculated as follows: • 1000 * ((A420−(1.75*A550))/(time(in minutes) *0.1 * A600)). Alkaline Phosphatase Assas
(§4) For this assay we prepared SIGMA FAST (p-nitrophenyl phosphate (PNPP) substrate, from Sigma-Aldrich Corp., St. Louis, Mo.) by adding one of each tablet provided by the manufacturer (one table each PNPP and Tris; stored at −20° C.) to 20 mL ddH2O, giving a final concentration of 1 mg/mL PNPP and 0.2M Tris. At each time point, for each sample, 50 μL SIGMA FAST substrate was combined with 5 μL of cells. The result was then incubated at room temperature for 30 minutes. The resulting color intensity for each sample was then read at A410. In addition, the cell density of each culture providing the 5 μL of cells used in each tested sample was read at A600 (i.e. the cell cultures were read in a 96 well plate). The value of A410/(0.1 * A600) was then calculated to express alkaline phosphatase activity/cell.
Anthranilate, like benzoate, is an inexpensive low toxic compound that can be utilized by P. fluorescens, making it an ideal compound to investigate as an inducer. […]. […] Expansion of the promoter clone to include the transcriptional activator gene 5′ of the antA open reading frame (ORF) increased expression levels of the lacZ fusion. […]

[2] = system: Pant-Pben tandem promoter; test: Pant-Pben tandem promoter reporter gene induction (lacZ); settings: for induction of the Pant-Pben tandem promoter: P. fluorescens
Protocol: as §1, §2, §3
However, unlike the catabolite-repressed Pben promoter, the activity of the Pant promoter was not inhibited during fermentation A fusion of these two promoters was created by linking them together, as shown in SEQ ID NO:3, i.e. by cloning a fragment antR and Pant, upstream of the Pben278 promoter fused to lacZ.

[3] = system: Pben promoter (Pben509, Pben278); test: Benzoate promoter (Pben) reporter gene induction (lacZ β-galactosidase / phoA alkaline phosphatase); settings: for induction of the benzoate promoter (Pben509, Pben278): P. fluorescens MB101, reporter gene lacZ or phoA
Protocol: as §1, §2, §3, §4
Benzoate-inducible promoter activity was tested by fusing the DNA fragment containing the putative promoter sequence of Pben509, or of Pben278 (described below), upstream of an easily assayable reporter gene (i.e. either lacZ, which encodes β-galactosidase and was used as the chief reporter gene, orphoA). The resulting plasmid was transformed into P. fluorescens MB101. […]

Row | Molecule | induction of the anthranilate promoter [1] | induction of the Pant-Pben tandem promoter [2] | induction of the benzoate promoter (Pben509, Pben278) [3] | further results
1 | Nc1cccc(Cl)c1C(=O)O [6-chloro-anthranilate, 6-chloroanthranilate] | inducible |  |  | 
2 | O=C(O)c1ccccc1 [benzoic acid] |  | inducible | inducible | 
3 | Oc1ccccc1O [catechol] |  |  | fail to induce | 
4 | Cc1ccccc1C(=O)O [o-toluate] | induce this promoter as well as does anthranilate | induce this promoter as well as does anthranilate |  | 
5 | Nc1ccc(Cl)cc1C(=O)O [5-chloro-anthranilate] | inducible |  |  | 
6 | Nc1c(Cl)cccc1C(=O)O [3-chloro-anthranilate] | inducible |  |  | 
7 | Nc1ccccc1C(=O)O [anthranilic acid] | inducible | inducible |  | 
8 | Cc1cccc(C(=O)O)c1 [m-toluic acid] |  |  | inducible | 
9 | Nc1ccccc1C(=O)[O-].[Na+] [sodium anthranilate] | inducible | inducible |  | strength of the tandem antR/Pant-Pben278 construct upon induction, compared with component promoter alone ([2]; lacZ fusion, in the presence of glucose): improved
10 | Nc1cc(Cl)ccc1C(=O)O [4-chloro-anthranilate] | inducible |  |  | 
11 | O=C(O)/C=C\C=C/C(=O)O [cis, cis-muconate] |  |  | fail to induce | 
12 | O=C([O-])c1ccccc1.[Na+] [sodium benzoate] |  |  | inducible; also recorded: show β-galactosidase or alkaline phosphatase activity | induction of the benzoate promoter (Pben509, Pben278) ([3]; listed as benzoate): benzoate was indeed the inducer for Pben; induction of expression of exogenous genes, benzoate promoter ([3]; induced with 5 mM sodium benzoate): about 250 fold
13 | Pant promoter with multi-copy antR: anthranilate-inducible promoter of P. fluorescens with the AntR activator coding sequence, a1-c1395 of SEQ ID NO:13 (nucleic acid, Construct containing the pDOW1057 Pant-Pben tandem promoter) DNA: AGCTTGCATGCCTGCAGGTTTAAACAGTCGACTCTAGACTTAATTAACTATCGCAGGCAAGCCAGCTCCCACAGATTGTTTTTCATCCAGTTCAAGTAATGCGCAGGCGCTTGCGCTGCAATGTCTGGCTGGGCGACTCATCGAACAGCTTGCGGTACTCCGCCGAAAACCGCCCCAAATGCGTAAACCCCCAACCCAGGGCGATTTCAGAGATGGTGCGGATCGAGCCCTGCTCCAGAATTTCTTGGCGCACCGCCCCCAACCGATGCTTCTTCAAATACGACATGGGCGACAGTGCGAAGTACTTGCGAAACGCATCGAACAGTTTGAAACGCGACACGCCCGCCGCCGCTTCCAGGTCTTCCAGGTGCAGCGCTTCACGGGCGTTGTCGTGGATAAATTGCCGCGCGCGGATCAGGTAGTGCGGCAGTTTCACCCCCAGCACGTCGCGCAGTTCTTCGGAGTAGTTATTCGGTTGGGCCAGGATCAGGCCCTTGATCAGCGAGCTTTCCAGGTCGCGAGTAAACGCCGCCTGCTCGTACAGTTCGCTGCTGCGCTCCAGTTCGGCGATGAAATAACGCGCCATGCGCCACCACGAAGCCGGTGCTCCGTCCACAGCATCCATCACCGACTCAAAGCGCAGCGGCGCATCAATGGGCCGTTGCAGCAAACCTTCCAGCGACTCGCTCATCGCCGCACGGGTGATTACCACCTGCAACTTGCGGCAGTCACCGGAAATCGCCAGCACCTGATGCTCATTGGGCGAAATGATCACGCCTTGGTCGCGGTTGGAACTGAGACGTTCACCGTTCTTGCTCAGCTCCTGCTCGCCCACCAGTGGCAGGCTCAAGCTGTAGCTGCTGAAGTGCTCGGCGTCTTCGATGTCGATGGTCACATCAGTGCCGTACTCGATCACGCCCAGGGTGGTGGCGCGGGATTTGAACACGTTGGCGCTGTGGTGAAAGCGCAGGCGCTCGGGGGTTGCCGTCGCCAGGCGATGGGGCCCGCAGATGCCGGACATCCAGCTGCGCGCGCCTTCCAGGTCGAAGCGTTGAATATGAATATCGCGTGTCTGACTAGTCATCAGGGTGCACCCACGGCGGTTAGGCGTTTGCGCGCTCTGACGGCGCGTCGTTGAACCTCGACAGCAAGTTCCAGGCCACGCCAGTGCAGTTCTCACTGGGTGGATAGCAACGGTCGACTATGTGGATAAACCCCAGAGTTTTGCGACCATCGCCCGCCATCACAGTAGCGCATGCCGTCACCGGCGCGCACCGTCATGGGTATTTGCCGCCCAACTTTGCGGCCTACGTTCCCCCATTAAGCGGATAGCCCGCCACCGCATCGCAGCCGCTTAATGGCTCACCGTTTAGCCATGATCAAAAGGTGCCTCCC |  |  |  | relative strength of promoter versus Pben278 promoter ([1]; Pant with multi-copy antR): approximately ⅕
